Some test systems named below: UO-31 renal; MALME-3M melanoma; HS 578T breast; CCRF-CEM leukemia; OVCAR-8 ovarian; PC-3 prostate; MDA-MB-231 breast; T-47D breast; MDA-MB-435; HCT-15 colon.
What all share (assay): NCI tumour cell line growth inhibition, 48 h

This note sets out measurements from PubChem BioAssay (NCI).

The structures appear in SMILES notation. Where “and” joins values, the source holds several entries; their conditions need not be identical. Equal entries are not always repeated.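 Compound exposure: 48 hours, 5 concentrations, 96-well plates. GI50: concentration for 50% inhibition of growth. TGI: concentration producing complete growth inhibition.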 Where only a bound is given, the exact number is not on record here.

Take `CCCCCCCCCCNC(=O)CI`: the GI50 with UO-31 renal is 1580 nM; in the experiment with MALME-3M melanoma, 213 nM; in the experiment with HS 578T breast, 2530 nM; in the experiment on CCRF-CEM leukemia it was 194 nM; in the experiment with OVCAR-8 ovarian it was 1550 nM; with PC-3 prostate, 1800 nM. Also, the GI50 with MDA-MB-231 breast is 1660 nM; in the experiment on T-47D breast it was 829 nM; with MDA-MB-435 it was 1970 nM; in the experiment with HCT-15 colon, 1500 nM. For the same compound, the TGI in the experiment on UO-31 renal turned out to be 3040 nM; with MALME-3M melanoma it was 494 nM; in the experiment on HS 578T breast, 6790 nM; in the experiment on CCRF-CEM leukemia it was 482 nM; in the experiment on OVCAR-8 ovarian it was 4520 nM; in the experiment on PC-3 prostate, 3560 nM. Further, the TGI in the experiment with MDA-MB-231 breast came to 3290 nM; in the experiment on T-47D breast, 2410 nM; in the experiment with MDA-MB-435, 4510 nM; in the experiment on HCT-15 colon, 3310 nM.

Consider `Cc1cc(N/N=C/c2ccccn2)nc2ccccc12`, for which the GI50 was 286 nM with UO-31 renal; 842 nM in the experiment with MALME-3M melanoma; 8200 nM in the experiment with HS 578T breast; 250 nM with CCRF-CEM leukemia; 381 nM in the experiment with OVCAR-8 ovarian; 486 nM with PC-3 prostate. The GI50 with MDA-MB-231 breast is 469 nM; with T-47D breast, 376 nM; with MDA-MB-435, 679 nM; with HCT-15 colon, 336 nM. The TGI in the experiment on UO-31 renal was 2290 nM; with MALME-3M melanoma, 10200 nM; with HS 578T breast, 34500 nM; in the experiment with CCRF-CEM leukemia it was 1770 nM; in the experiment on OVCAR-8 ovarian, 16600 nM; in the experiment on PC-3 prostate it was 19200 nM. The TGI with MDA-MB-231 breast came to 14300 nM; in the experiment on T-47D breast it was 15900 nM; with MDA-MB-435, 15900 nM; in the experiment on HCT-15 colon, 16300 nM.

On to `OC(c1cc(-c2ccc(C(F)(F)F)cc2)nc(C(F)(F)F)c1)C1CCCCN1` (centres undefined), for which the GI50 in the experiment on UO-31 renal is 1440 nM and 4960 nM; in the experiment with HS 578T breast it was 1960 nM and 3920 nM; with CCRF-CEM leukemia it was 1620 nM; in the experiment on OVCAR-8 ovarian it was 1870 nM and 2200 nM; in the experiment on PC-3 prostate, 1720 nM; with MDA-MB-231 breast it was 1720 nM and 2420 nM. The GI50 with T-47D breast was 1660 nM and 2330 nM; in the experiment on MDA-MB-435 it was 1670 nM; with HCT-15 colon, 1700 nM. The TGI with UO-31 renal was 2850 nM and 18300 nM; with MALME-3M melanoma it was 3280 nM and 3380 nM; in the experiment with HS 578T breast, 4050 nM and 12200 nM; in the experiment on CCRF-CEM leukemia it was 3530 nM and 4810 nM; in the experiment with OVCAR-8 ovarian, 3620 nM and 4590 nM; in the experiment with PC-3 prostate it was 3370 nM and 6330 nM. For the same compound, the TGI was 3160 nM and 5650 nM with MDA-MB-231 breast; 3310 nM and 6200 nM in the experiment with T-47D breast; 3050 nM and 3420 nM in the experiment with MDA-MB-435; 3120 nM and 4700 nM in the experiment on HCT-15 colon.

For the compound `COC(=O)c1cc2c(o1)-c1nccc3c1c(nc1ccccc13)C2=O`, the GI50 with UO-31 renal is 5490 nM; in the experiment on MALME-3M melanoma, 1890 nM; in the experiment with HS 578T breast, 14200 nM; with CCRF-CEM leukemia, 3790 nM; in the experiment on OVCAR-8 ovarian, 2100 nM; with PC-3 prostate, 3410 nM. Further, the GI50 is 5100 nM in the experiment with MDA-MB-231 breast, 1880 nM in the experiment with T-47D breast, 538 nM in the experiment with MDA-MB-435 and 1570 nM with HCT-15 colon. Moreover, the TGI with UO-31 renal is 24300 nM; with MALME-3M melanoma it was 5960 nM; in the experiment with HS 578T breast, 37100 nM; in the experiment with CCRF-CEM leukemia, 15500 nM; with OVCAR-8 ovarian, 6380 nM; with PC-3 prostate, 29600 nM. Besides, the TGI was found to be 39500 nM in the experiment on MDA-MB-231 breast, 6900 nM with T-47D breast, 1810 nM in the experiment on MDA-MB-435 and 11100 nM in the experiment on HCT-15 colon.

As for `O=C(Nc1cc(Nc2ncccc2-c2ncnc3nc[nH]c23)ccc1F)c1cc(C(F)(F)F)cc(C(F)(F)F)c1`, the GI50 in the experiment on UO-31 renal is 319 nM; in the experiment with MALME-3M melanoma it was 152 nM; with HS 578T breast, 1800 nM; in the experiment on CCRF-CEM leukemia, 2970 nM; in the experiment on OVCAR-8 ovarian, 3670 nM; in the experiment on PC-3 prostate it was 2340 nM. Further, the GI50 in the experiment on MDA-MB-231 breast is 1040 nM; with T-47D breast, 4240 nM; with MDA-MB-435, 996 nM; in the experiment with HCT-15 colon it was 2120 nM. For the same compound, the TGI in the experiment on UO-31 renal was 1990 nM; in the experiment with MALME-3M melanoma, 542 nM; in the experiment on HS 578T breast it was 8880 nM; with CCRF-CEM leukemia it was > 10000 nM; with OVCAR-8 ovarian, > 10000 nM; in the experiment on PC-3 prostate it was 5190 nM. The TGI was 2790 nM in the experiment with MDA-MB-231 breast, > 10000 nM with T-47D breast, > 10000 nM in the experiment on MDA-MB-435 and 5670 nM with HCT-15 colon.

Consider `N[C@H](CCC(=O)N[C@@H](Cc1c[nH]c2ccccc12)C(=O)O)C(=O)O`, for which the GI50 in the experiment with UO-31 renal, in the experiment on MALME-3M melanoma, in the experiment with HS 578T breast, in the experiment on CCRF-CEM leukemia, in the experiment on OVCAR-8 ovarian and in the experiment on PC-3 prostate was > 100000 nM in each case. The GI50 with MDA-MB-231 breast, with T-47D breast, in the experiment with MDA-MB-435 and in the experiment on HCT-15 colon was > 100000 nM throughout. The TGI in the experiment with UO-31 renal, in the experiment on MALME-3M melanoma, in the experiment on HS 578T breast, in the experiment on CCRF-CEM leukemia, in the experiment on OVCAR-8 ovarian and in the experiment on PC-3 prostate was > 100000 nM throughout. The TGI with MDA-MB-231 breast, with T-47D breast, in the experiment with MDA-MB-435 and with HCT-15 colon was > 100000 nM each time.

Turning to `O=C(NCc1ccc(Cn2c(=O)sn(-c3ccccc3)c2=O)cc1)OCc1ccc2cccc(O)c2n1`, the GI50 with UO-31 renal is 571 nM; in the experiment on MALME-3M melanoma it was 1480 nM; with HS 578T breast it was 1710 nM; in the experiment with CCRF-CEM leukemia, 359 nM; in the experiment with OVCAR-8 ovarian, 957 nM; with PC-3 prostate, 826 nM. Also, the GI50 with MDA-MB-231 breast was 1190 nM; in the experiment with T-47D breast it was 1490 nM; with MDA-MB-435, 709 nM; in the experiment with HCT-15 colon it was 298 nM. For the same compound, the TGI is 1920 nM with UO-31 renal; 2860 nM with MALME-3M melanoma; 4900 nM in the experiment with HS 578T breast; > 100000 nM in the experiment on CCRF-CEM leukemia; 3000 nM in the experiment on OVCAR-8 ovarian; 2420 nM in the experiment with PC-3 prostate. For the same compound, the TGI with MDA-MB-231 breast came to 2550 nM; in the experiment on T-47D breast, 4590 nM; in the experiment with MDA-MB-435, 2030 nM; in the experiment on HCT-15 colon, 969 nM.
